Source: ChEMBL document CHEMBL1142830, “QSAR studies on structurally similar 2-(4-methanesulfonylphenyl)pyran-4-ones as selective COX-2 inhibitors: a Hansch approach” (Bioorg Med Chem Lett, 2005)

Target: T1, Prostaglandin G/H synthase 2 (Homo sapiens, UniProt P35354)
T1 sequence (P35354 whole entry): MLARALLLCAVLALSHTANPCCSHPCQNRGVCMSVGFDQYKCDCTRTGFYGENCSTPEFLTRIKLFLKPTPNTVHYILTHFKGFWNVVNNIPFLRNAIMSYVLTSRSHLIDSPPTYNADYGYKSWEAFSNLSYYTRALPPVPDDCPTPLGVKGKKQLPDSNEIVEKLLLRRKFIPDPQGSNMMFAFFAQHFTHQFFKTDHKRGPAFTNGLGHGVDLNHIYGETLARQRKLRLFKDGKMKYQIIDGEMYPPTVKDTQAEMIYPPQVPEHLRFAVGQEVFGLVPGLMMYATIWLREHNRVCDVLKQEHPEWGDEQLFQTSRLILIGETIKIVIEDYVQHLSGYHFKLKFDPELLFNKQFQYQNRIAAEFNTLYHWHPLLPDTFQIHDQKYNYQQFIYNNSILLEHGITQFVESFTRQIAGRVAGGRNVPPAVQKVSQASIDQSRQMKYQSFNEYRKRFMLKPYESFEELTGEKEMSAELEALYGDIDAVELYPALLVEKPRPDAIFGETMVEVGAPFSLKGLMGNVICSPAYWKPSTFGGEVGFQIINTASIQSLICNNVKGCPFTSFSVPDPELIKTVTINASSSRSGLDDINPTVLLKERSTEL
Experiment: Inhibitory concentration for Cyclooxygenase-2 (Prostaglandin G/H synthase 2) in human whole blood
Format: tissue-based

IC50 | SMILES
2.45 µM | Cc1cc(=O)c(Oc2ccc(OC(F)(F)F)cc2)c(-c2ccc(S(C)(=O)=O)cc2)o1
87.9 µM | CS(=O)(=O)c1ccc(-c2occ(Cl)c(=O)c2-c2ccc(-c3ccccc3)c(F)c2)cc1
3.38 µM | Cc1cc(=O)c(Oc2ccc(Cl)cc2Cl)c(-c2ccc(S(C)(=O)=O)cc2)o1
